Read-outs that look alike come from different tables or passages of the source.
What was measured:
M. tuberculosis ATP-PRT [1] = target: T1, M. tuberculosis ATP-PRT (Mycobacterium tuberculosis, UniProt P9WMN1); test: biochemical
ATP-PRT [2] = target: T2, ATP-PRT (Mycobacterium tuberculosis, UniProt P9WMN1); test: Competition saturation transfer difference (STD) NMR; format: binding; conditions: 20 μM ATP-PRT, 400 μM TIH, L-His 0-3000 μM, pH 8.0
Experimental: NMR spectra were recorded at 25 °C on a Bruker Avance-600 spectrometer equipped with a triple resonance cryo-probe and operating at a ^1H frequency of 600 MHz. […] Spectra with on-resonance pre-saturation of the enzyme at 0.8 ppm were recorded with a saturation time of 2 s. An off-resonance control spectrum was recorded with a saturation time of 2 s. Water suppression was achieved by excitation sculpting. Data processing and spectral subtractions were performed using Bruker TopSpin 3.2 software.

ATP-PRT [3] = target: T2, ATP-PRT
M. tuberculosis ATP-PRT [4] = target: T1, M. tuberculosis ATP-PRT; conditions: cited from earlier work
crystal structure = target: the molecule itself; test: crystal structure

For N[C@@H](Cc1c[nH]cn1)C(=O)O [L-His, L-histidine, reference compound], the IC50 (M. tuberculosis ATP-PRT [1]) was 22 ± 4 µM, the “ATP-PRT activity at saturating L-His” value (M. tuberculosis ATP-PRT [1]; 400 µM L-His (20-fold K i)) was “fully inhibited” and the Ki (M. tuberculosis ATP-PRT [1]; L-His inhibition vs ATP, [TIH] 0 mM, read-out: K i,ATP) was 20 ± 1 µM. The Ki (M. tuberculosis ATP-PRT [1]; linear noncompetitive inhibition vs. PRPP, no TIH, read-out: K i,PRPP) was 16 ± 1 µM, the “Competition STD NMR outcome” value (ATP-PRT [2]) was “displacement of TIH by L-His” and the “Drift time of main ATP-PRT form” value (ATP-PRT [3]; pH 6.8, charge state +28) was 44.1 ms. The “Drift time of main ATP-PRT form” value (ATP-PRT [3]; pH 9.0, charge state +28) was 44.2 ms and the “Hill number (n H) for L-His inhibition” value (M. tuberculosis ATP-PRT [4]) was 1.5.

With O=P(O)(O)OC[C@H]1O[C@H](OP(=O)(O)OP(=O)(O)O)[C@H](O)[C@@H]1O [PRPP, 5-phospho-α-D-ribose 1-diphosphate] the “K m,PRPP” value (M. tuberculosis ATP-PRT [1]; activation experiment, unactivated reaction, varying PRPP) was 190 ± 30 µM.

With Nc1ncnc2c1ncn2[C@@H]1O[C@H](COP(=O)(O)OP(=O)(O)OP(=O)(O)O)[C@@H](O)[C@H]1O [ATP] the “K m,ATP” value (M. tuberculosis ATP-PRT [1]; [TIH] 0 mM, L-His inhibition pattern) was 230 ± 30 µM, the “K m,ATP” value (M. tuberculosis ATP-PRT [1]; [TIH] 0.25 mM, L-His inhibition pattern) was 200 ± 20 µM and the “K m,ATP” value (M. tuberculosis ATP-PRT [1]; [TIH] 0.8 mM, L-His inhibition pattern) was 180 ± 20 µM. For the same molecule, the “K m,ATP” value (M. tuberculosis ATP-PRT [1]; [TIH] 4 mM, L-His inhibition pattern) was 160 ± 20 µM and the “K m,ATP” value (M. tuberculosis ATP-PRT [1]; activation experiment, unactivated reaction, varying ATP) was 100 ± 10 µM.

In the case of N[C@@H](Cc1cccs1)C(=O)O [TIH, 3-(2-thienyl)-L-alanine], the ATP-PRT activity restored (M. tuberculosis ATP-PRT [1]; 400 µM L-His plus close to 4 mM TIH) is reported as 100%, the V max (M. tuberculosis ATP-PRT [1]; [TIH] 0.25 mM, L-His inhibition pattern, varying ATP) is reported as 0.28 ± 0.01 s⁻¹ and the V max (M. tuberculosis ATP-PRT [1]; [TIH] 0.8 mM, L-His inhibition pattern, varying ATP) is reported as 0.38 ± 0.01 s⁻¹. For the same molecule, the V max (M. tuberculosis ATP-PRT [1]; [TIH] 4 mM, L-His inhibition pattern, varying ATP) was 0.76 ± 0.01 s⁻¹, the Emax (M. tuberculosis ATP-PRT [1]; read-out: ATP-PRT activity increased up to (maximal activation)) was no more than 433% and the αATP (M. tuberculosis ATP-PRT [1]; varying ATP, Eq. 4) was 1.4 ± 0.2. The βATP (M. tuberculosis ATP-PRT [1]; varying ATP, Eq. 4) was 4.9 ± 0.2, the “α (PRPP)” value (M. tuberculosis ATP-PRT [1]; varying PRPP, Eq. 4) was 1.1 ± 0.4 and the “β (PRPP)” value (M. tuberculosis ATP-PRT [1]; varying PRPP, Eq. 4) was 4.9 ± 0.5. For the same molecule, the “Drift time of main ATP-PRT form” value (ATP-PRT [3]; pH 6.8, charge state +28) was 44.2 ms and the “Drift time of main ATP-PRT form” value (ATP-PRT [3]; pH 9.0, charge state +28) was 44.1 ms.

B1: Mycobacterium tuberculosis ATP-phosphoribosyltransferase (enzyme)
chain: MLRVAVPNKGALSEPATEILAEAGYRRRTDSKDLTVIDPVNNVEFFFLRPKDIAIYVGSGELDFGITGRDLVCDSGAQVRERLALGFGSSSFRYAAPAGRNWTTADLAGMRIATAYPNLVRKDLATKGIEATVIRLDGAVEISVQLGVADAIADVVGSGRTLSQHDLVAFGEPLCDSEAVLIERAGTDGQDQTEARDQLVARVQGVVFGQQYLMLDYDCPRSALKKATAITPGLESPTIAPLADPDWVAIRALVPRRDVNGIMDELAAIGAKAILASDIRFCRF
notes: also called ATP-PRT; HisG
For B1, the “stoichiometry N” value (crystal structure) was 6.
